# According to patent publication US10752647B2, “N-phosphonoxymethyl prodrugs of hydroxyalkyl thiadiazole derivatives” (DAIICHI SANKYO COMPANY, LIMITED, priority 2017, dated 2020):
# Assays:
# [1] = Conversion efficiency / PK profile after IV dose in monkeys; format: in vivo; conditions: Monkey, plasma, parent compound IV 1 mg/kg; read-out: Parent compound AUCinf
# Experimental: (§1) Method of Testing Conversion Efficiency Determination of conversion efficiency of Compound No. 1 and Compound No. 2 was conducted in rodents (mice and rats) and non-rodents (monkeys and dogs). Animals were divided in two groups with two animals in each group. One group received an intravenous (IV) dose of prodrug and the other group received an IV dose of parent compound. The dose of prodrug was taken as molar equivalent dose of parent compound. Serial blood sampling was carried out at 0.083, 0.33, 1, 2, 4, 8 and 24 h post IV dose from both the animal groups. Blood samples were centrifuged to harvest plasma. Plasma samples were stored at −80° C. until analysis. Plasma samples of prodrug administered animals were simultaneously analyzed for both analytes (prodrug and parent compound) using LC-MS/MS. Area under the curve (AUC) of plasma concentrations versus time profiles were calculated in WinNonlin software and percentage conversion efficiency was determined using the formula: Percentage conversion efficiency=(AUCiv of parent compound (from prodrug administered samples)×100/(AUCiv of parent compound (from parent compound administered samples). PK profile of Compounds No. 1 and No. 2 in rats, dogs and monkeys are depicted in Table 5 and 6, respectively (also shown in FIGS. 1 and 2).
# [2] = Conversion efficiency / PK profile after IV dose in rats (Compounds No. 1 and No. 2); format: in vivo; conditions: Rat, plasma, parent compound IV 12.5 mg/kg; read-out: Parent compound AUCinf
# Experimental: as §1
# [3] = Conversion efficiency / PK profile after IV dose in dogs; format: in vivo; conditions: Dog, plasma, parent compound IV 1 mg/kg; read-out: Parent compound AUCinf
# Experimental: as §1
# [4] = Solubility of parent compounds and prodrugs in phosphate buffer; format: physicochemical; conditions: aqueous buffer, thermodynamic from solid; prodrug, phosphate buffer adjusted with NaOH, 25° C., more than 4 weeks, pH 7.2
compound,measurement,setting,value
"CCc1[nH]c(C(=O)N[C@@H]2CCN(c3nnc(C(C)(C)O)s3)C[C@@H]2OC)nc1Cl [Parent compound of Compound No. 1, 4-chloro-5-ethyl-N-{(3S,4R)-1-[5-(1-hydroxy-1-methylethyl)-1,3,4-thiadiazol-2-yl]-3-methoxypiperidin-4-yl}-1H-imidazole-2-carboxamide]",AUC(0-inf),[1],6250 ng·h/mL
same,AUC(0-inf),[2],17700 ng·h/mL
same,AUC(0-inf),[3],29400 ng·h/mL
"CCc1c(Cl)nc(C(=O)N[C@@H]2CCN(c3nnc([C@@H](O)CO)s3)C[C@@H]2OC)n1COP(=O)(O)O [Compound No. 9, [4-Chloro-2-({(3S,4R)-1-[5-(1,2-dihydroxyethyl)-1,3,4-thiadiazol-2-yl]-3-methoxypiperidin-4-yl}carbamoyl)-5-ethyl-1H-imidazol-1-yl]methyl dihydrogen phosphate]",solubility,[4],102 mg/mL
